This note sets out measurements from PMC9656482, “In Vitro and In Vivo Biological Activity of Ruthenium 1,10-Phenanthroline-5,6-dione Arene Complexes” (International Journal of Molecular Sciences, 2022).

What is called IC50 is the concentration that inhibits the measured activity by half. The LC50 is the concentration lethal to half of the exposed cells or organisms.

Series [1] in a line: Stability in DMSO-d6-D2O solution by 1H NMR. Type of series: physicochemical. Conditions: DMSO-d6-D2O 3:7 (v/v), 110 mM chloride. As to the method:
To evaluate the stability of complexes in a cell culture medium, powdered complexes were first solubilized in DMSO and then immediately in DMEM, in order to guarantee that no more than 0.1% (v/v) DMSO was present in the medium. […] In addition, the stability of the complexes in solution was investigated by ^1H NMR spectroscopy. The ruthenium complexes were dissolved in DMSO-d6-D2O, in a 3:7 ratio (v/v) with a 110 mM chloride concentration, and the ^1H NMR spectra was recorded immediately and after 48 h. […] This observation is in agreement with the M–Cl aquation processes described for several metallic compounds, such as cisplatin [23]. After 48 h, the ^1H NMR spectrum of JHOR10 was unchanged.
The stability of complexes was evaluated in DMEM (Dulbecco’s modified Eagle’s medium). Powdered complexes JHOR10 and JHOR11 were solubilized in DMSO and then immediately diluted in DMEM without phenol red (Thermo Fisher Scientific, Waltham, MA, USA) to a final concentration of 100 µM, assuring that the final concentration of DMSO was not higher than 0.1% (v/v). The UV-visible spectrum was measured after an incubation at 37 °C for 24 or 48 h (DMEM) in a wavelength range between 260 and 800 nm, using a quartz cuvette with 1 cm path length. A total of 2 mg of each compound was dissolved in DMSOd6-D2O 3:7 (v/v) 110 mM chloride concentration (NaCl), and the ^1H NMR were recorded at 0 h and 48 h on a Bruker Avance III 400 MHz.

Series [2] deals with HCT116 colorectal carcinoma cell line. Kind of series: MTS antiproliferative assay, HCT116. Format: cell-based, human. Conditions: 48 h incubation, MTS; read-out: Relative IC50, HCT116. (Tetrazolium assays rely on reduction of a dye to a coloured formazan, in cell work by metabolically active cells.)
Protocol: (§3) Normal dermal human fibroblasts, colorectal carcinoma cell line HCT116 and ovarian carcinoma cell line A2780 were acquired from ATCC (Manassas, VA, USA). […] Fibroblasts and HCT116 cells were cultured in Dulbecco’s modified Eagle medium (DMEM, Thermo Fisher Scientific) and A2780 cell line was cultured on Roswell Park Memorial institute 1640 (RPMI-1640, Thermo Fisher Scientific). Both media were supplemented with 10% (v/v) fetal bovine serum (FBS, Thermo Fisher Scientific) and a mixture of 100 U/mL penicillin and 100 mg/mL streptomycin. The supplemented media are referred to from this point on as DMEM or RPMI for simplicity. […] All experiments underwent at 37 °C, 5% (v/v) CO2 and 99% (v/v) humidity in the dark.
(§4) Cells were seeded in a 96-well plate in a density of 7500 cells/well, and after 24 h was submitted to a concentration range between 0.1–50 µM of complexes JHOR10 and JHOR11. DMSO with a 0.1% (v/v) concentration was used as vector control and cisplatin was used as positive control in all replicates. After 48 h incubation, cellular viability was inferred with the Cell Titer 96® Aqueous One solution cell proliferation assay (Promega, Madison, WI, USA) according to the manufacturer’s instructions and procedures previously described [18, 40]. The absorbance of the produced Formazan was quantified with a Tecan microplate reader, Infinite M200 (Tecan, Mannedorf, Switzerland) and the analysis of the dose–response curves to determine the relative IC50 was performed with GraphPad Prism 8.2.1 software (GraphPad Software, La Jolla, CA, USA).
The subject of series [3] is A2780 ovarian carcinoma cell line. Kind of series: MTS antiproliferative assay, A2780. Conditions: 48 h incubation, MTS; read-out: Relative IC50, A2780. Type of series: cell-based, human.
Protocol: as §3, §4
In the next series the test system is zebrafish embryos. Kind of series: In vivo toxicity assessment using zebrafish embryos. The settings on record: zebrafish embryos exposed from 72 hpf, 96 h. The method, then: The toxicity of the JHOR10 and JHOR11 compounds was assayed in zebrafish embryos. There was a NOEC (No Observed Effect Concentration) in the case of JHOR11 of 80 µM (Table 2). The NOEC is the concentration used for the xenotransplantation experiments in order not to affect the normal development of the embryos and being able, in parallel, to assay the effect of the compound over the injected cells. Apart from that, the mortality assayed in the toxicity assays supports the concentration obtained in the NOEC, with a low mortality of the embryos when they are incubated with JHOR11 (Figure 13 and Figure 14).
Wild-type zebrafish were housed in 30 L tanks within a water recirculation system under controlled physicochemical conditions: pH 7–7.5, temperature 26 ± 2 °C, conductivity 600 µS/cm and light/dark photoperiod of 14/10 h. The adult fish were fed Gemma Micro 300 (Skretting) twice a day. Fertilized eggs were collected after natural spawning and stored in Petri dishes for 48 h until being injected, or 72 h until being exposed to different concentrations of ruthenium compounds.
At 72 h post-fertilization (hpf), the embryos were exposed to increasing concentrations of two ruthenium compounds to determine toxicological estimates: LC50 with no observed effect concentration (NOEC) and lowest observed effect concentration (LOEC). The acute toxicity assessment of the compounds was performed following the standards of the OECD Test Guideline Program.
The embryos were individually transferred to 96-well plates containing 100 µL of each desired concentration. The plates were then placed in an incubator with a temperature of 26 °C and a photoperiod of 14 h of light and 10 h of darkness. The duration of the experiment was 96 h, and observations were made every 24 h recording the four lethal effects indicated by the OECD: embryo coagulation, absence of somite formation, absence of separation of the yolk tail and absence of heartbeat. All compounds were dissolved with dimethylsulfoxide (DMSO) with a final concentration of 1%. In each test, seven concentrations were analyzed for each compound, these being: JHOR10 (10, 20, 30, 40, 50, 55, 60 µM) and JHOR11 (50, 80, 100, 140, 200, 300, 400 µM).
For the evaluation of toxicity, the mortality data were analyzed by probit analysis with the ToxRat software (ToxRat Solutions. 2003. ToxRat®. Software for the statistical analysis of biotests. Alsdorf, Germany).

Series [4] deals with doxorubicin-resistant HCT116 (HCT116-Dox). Conditions: read-out: Relative IC50, HCT116-Dox; 48 h incubation, MTS. As to the method:
(§1) The cytotoxic potential of the complexes was evaluated by assessing their viability using the 3-(4,5-dimethylthiazol-2-yl)-5-(3-carboxymethoxyphenyl)-2-(4-sulfophenyl)-2H tetrazolium, inner salt (MTS) colorimetric assay in three tumor cell lines—ovarian carcinoma, A2780, colorectal carcinoma, HCT116, and colorectal carcinoma resistant to doxorubicin, HCT116-Dox and in normal human primary dermal fibroblasts (Figure 1 and Figure S7).
(§2) Normal dermal human fibroblasts, colorectal carcinoma cell line HCT116 and ovarian carcinoma cell line A2780 were acquired from ATCC (Manassas, VA, USA). HCT116 cell lines resistant to doxorubicin (HCT116-Dox) were derived from the HCT116 cell line, as previously described. Fibroblasts and HCT116 cells were cultured in Dulbecco’s modified Eagle medium (DMEM, Thermo Fisher Scientific) and A2780 cell line was cultured on Roswell Park Memorial institute 1640 (RPMI-1640, Thermo Fisher Scientific). Both media were supplemented with 10% (v/v) fetal bovine serum (FBS, Thermo Fisher Scientific) and a mixture of 100 U/mL penicillin and […] streptomycin. The supplemented media are referred to from this point on as DMEM or RPMI for simplicity.

Series [5] deals with normal human dermal fibroblasts. The settings on record: read-out: Relative IC50, Fibroblasts; 48 h incubation, MTS. As to the method: as §1, §2
The next series has as its system A2780 cells. Kind of series: Cell cycle analysis (PI staining). Type of series: cell-based, human. The settings on record: A2780 synchronized with thymidine; IC50 of JHOR11 or 0.1 µM doxorubicin; 5-32 h, relative to DMSO. The method, then: To understand if the complex also presents a cytostatic effect, the cell cycle of A2780 cells was analyzed by DNA staining with PI, after double synchronization with thymidine at the S phase.
The cell cycle analysis was performed by DNA staining with PI according to procedures previously described with few modifications. A2780 cells were seeded in 6-well plates in a cell density of 4 × 10^5 cells/well and the cell cycle was synchronized in the S-phase by double blocking with 2 mM thymidine. […] After 5 h, 9 h, 24 h or 32 h, cells were detached, fixed with 80% (v/v) ethanol, incubated with 50 mg/mL RNase A (NZYtech, Lisbon, Portugal) and stained with […] PI (Thermo Fisher Scientific). The fluorescence of each sample was analyzed in an Attune acoustic focusing cytometer and respective software (Thermo Fisher Scientific).

As for `Cc1ccc(C(C)C)cc1.O=C1C(=O)c2cccnc2-c2ncccc21.O=S(=O)([O-])C(F)(F)F.[Cl][Ru+]` [JHOR10, [Ru{p-C6H4(Me)(iPr)}{(Dione)Cl][CF3SO3]], in series [1] (48 h), the “stability in solution by 1H NMR after 48 h” value was “unchanged”. Also, in series [1] (t = 0 h), the “stability in solution by 1H NMR at t = 0 h” value is “new sets of resonances appeared”. Also, the IC50 in series [2] was 25.7 ± 1.3 µM; in series [3], 5.3 ± 0.3 µM; in series [4], over 50 µM; in series [5], over 50 µM. In the series with zebrafish embryos, this compound returned an LC50 of 29.8 µM. For the same compound, the “LOEC (Lowest Observed Effect Concentration)” value in the series on zebrafish embryos is given as 20.00 µM. Moreover, in the series with zebrafish embryos, the “NOEC (No Observed Effect Concentration)” value worked out at 10.00 µM.
As for `N.N.[Cl][Pt][Cl]` [Cisplatin, reference compound], the results for the IC50 in series [2] and in series [3] were 15.6 ± 5.3 µM and 1.9 ± 0.2 µM, respectively.
With `COc1cccc2c1C(=O)c1c(O)c3c(c(O)c1C2=O)C[C@@](O)(C(=O)CO)C[C@@H]3O[C@H]1C[C@H](N)[C@H](O)[C@H](C)O1` [doxorubicin, reference compound], the cell cycle effect result in the series on A2780 cells is recorded as “cell cycle arrest at G2/M phase”.
